Assay results reported in US8809529B2, “Imidazo[1,2-α]pyrazine derivatives” (Promega Corporation, priority 2010, dated 2014).
Like-named read-outs stand apart in the source and are kept apart here.

What was measured:
HEK293 cells [1] = test: Toxicity of coelenterazines in HEK293 cells (CELLTITER-GLO); settings: 24 hrs after compound addition
[2] = Luminescence screen of OgLuc variants in lysed E. coli cells; type: biochemical; settings: QC27-9a versus C1+A4E
Procedure: Resulting libraries were expressed in E. coli and primarily screened with a robotic system for OgLuc variants having increased light output (i.e., increased luminescence, increased brightness, or increased light emission) or a change in relative specificity compared to the corresponding starting OgLuc variant. The robotic primary screen was conducted as follows: individual colonies from the generated library were used to inoculate minimal media in 96-well plates and grown at 37° C. for 17 to 20 hrs (“M1 culture”). The M1 culture was diluted 1:20 with fresh minimal media and grown at 37° C. for 17-20 hrs (“M2 culture”). […] The use of the different induction media was determined based on the luminescence generated between C1+A4E and the novel coelenterazines, i.e., the induction media containing rhamnose and glucose were used with novel coelenterazines that generated less luminescence with C1+A4E compared to the other novel coelenterazines with C1+A4E.
Luminescence measurements for each variant were taken 3 min after reagent addition and relative luminescence unit (RLU) values were normalized to an average of 8 control wells of the corresponding starting OgLuc variant for each plate. […]

HEK293 cells [3] = settings: human, 24 h
OgLuc variant L27V = OgLuc variant L27V (Oplophorus gracilirostris, UniProt Q9GV45, A31E/A60N/A81I/F95D/I117V/K70R/L54V/L99Q/M102K/N193R/P142E/Q151K/Q38R/Q45L/V71I/Y165I); settings: approximately 20 pM L27V, pH 6, 3 min at 22° C.
Procedure: To determine the Km of PBI-3939, the OgLuc variant L27V (described in Example 26) was purified via HALOTAG® fusion using the HALOTAG® Protein Purification System according to the manufacturer's instructions and diluted in DMEM without Phenol Red and 0.1% PRIONEX®. 50 μL assay buffer (100 mM MES pH 6, 35 mM Thiourea, 0.5% TERGITOL® NP-9 (v/v), 1 mM CDTA, 2 mM DTT and 150 mM KCl) with varying amounts of PBI-3939 was added to 50 μL diluted enzyme (approximately 20 pM final enzyme concentration), and luminescence measured at 3 min at 22° C.

HEK293 cells [4] = test: Live cell luminescence in HEK293 cells; type: cell-based, human; settings: HEK293 cells expressing 9B8 opt, 60 μM
Procedure: A. The use of OgLuc variants and PBI-3939 in live cells was examined. HEK293 cells were plated in 96-well plates at 15,000 cells/well and grown overnight, at 37° C. The following day, the cells were transiently transfected using TRANSIT®-LT1 in 3 replicates with 100 ng of hRL or 9B8 opt in pF4Ag and grown overnight at 37° C. The following day the growth media was removed and replaced with media containing 60 μM VIVIREN™ Live Cell Substrate (Promega Corp.), 60 μM ENDUREN™ Live Cell Substrate (Promega Corp.), or 60 μM PBI-3939 for both hRL and 9B8 opt transfected cells. Non-transfected cells were used as background control. The plate was incubated at 37° C. during the course of one day and periodically measured on a TECAN® GENIOS™ Pro luminometer, i.e., 11 times over the course of 24 hrs.

OgLuc variant 9B8 opt = biological target: T1, OgLuc variant 9B8 opt (Oplophorus gracilirostris, UniProt Q9GV45, A31E/A60K/A81I/F95Y/I117V/L99Q/M102K/N193R/P142E/Q151K/Q38R/Q45L/V71I/Y165I); test: Multiplex assay with red click beetle luciferase and 9B8 opt (modified DUAL-GLO); type: biochemical
T1 construct: made in house; host or cells: E. coli (crude lysate)
Procedure: A. Lysates of E. coli expressing the variant 9B8 opt were prepared as previously described in Example 27 and diluted 1000-fold in DMEM without phenol red+0.1% PRIONEX®. Luminescence from a sample containing 6.3 μg/mL of purified red click beetle luciferase and E. coli lysate expressing the variant 9B8 opt was detected using a modified DUAL-GLO® Luciferase Assay System (Promega Corp.). DUAL-GLO® STOP&GLO® Reagent containing 20 μM coelenterazine-h and DUAL-GLO® STOP&GLO® Reagent containing 20 μM PBI 3939 were used, according to the manufacturer's protocol, to detect the red click beetle luciferase and OgLuc variant 9B8 luciferase from a single sample. Three replicates were performed.
Luminescence was detected on a Turner MODULUS™ luminometer. […] The standard deviation (“+/−”) and coefficient of variance (“CV”) are also shown. A “no coelenterazine” control was performed to illustrate the amount of quenching of the red click beetle signal by the DUAL-GLO® STOP&GLO® Reagent of the DUAL-GLO® Luciferase Assay System in the absence of coelenterazine. The “no coelenterazine” control yielded a 349-fold quench.

L27V02 enzyme = biological target: T2, L27V02 enzyme (Oplophorus gracilirostris, UniProt Q9GV45, A31E/A60N/A81I/F95D/I117V/K70R/L54V/L99Q/M102K/N193R/P142E/Q151K/Q38R/Q45L/V71I/Y165I); test: Luminescence of compounds with purified L27V02 enzyme; type: biochemical; settings: 20 μM compound, 36 pM L27V02, pH 7, 3 min
T2 construct: The N-terminus of the OgLuc variant L27V is methionine, valine and phenylalanine, i.e., MVF; made in house
Procedure: Compounds PBI-4525, PBI-4540 and PBI-4541 were screened for their ability to detect luminescence. […] The assay reagent was then mixed with 36 pM purified L27V02 enzyme (described in Example 25B), in DMEM without Phenol Red and 0.1% PRIONEX®. As a control, assay buffer with 20 μM PBI-3939 or PBI-4528 was used. Luminescence was measured as previously described 3 min after the assay reagent was added to the enzyme mixture.

OgLuc = biological target: T3, OgLuc (Oplophorus gracilirostris, UniProt Q9GV45, A31E/A60K/A81I/F95Y/I117V/L99Q/M102K/N193R/P142E/Q151K/Q38R/Q45L/V71I/Y165I); test: LOPAC library inhibition screen; type: biochemical; settings: preliminary LOPAC screen with 9B8 variant, 20 μM substrate
T3 construct: 10 μL of purified 9B8, L27V or firefly luciferase (Luc2) enzyme; made in house
Procedure: To determine the susceptibility of the OgLuc variants to off-target interactions, the activity of the 9B8 and L27V variants was screened against a LOPAC (library of pharmacologically active compounds) library. A LOPAC 1280 library (Sigma) was prepared by diluting the compounds to 1 mM in DMSO. On the day of the assay, the compounds were diluted to 20 μM in 1×PBS, and 10 μL transferred to a 96-well, white plate. To each well, 10 μL of purified 9B8, L27V or firefly luciferase (Luc2) enzyme diluted 10^−4 in Glo Lysis Buffer (Promega Corp.) was added and incubated at room temperature for 2 min. […] For assaying firefly luciferase, the BRIGHT-GLO™ Assay reagent (Promega Corp.) was used according to the manufacturer's protocol. As a negative control, 8 wells of each plate contained 1×PBS+2% glycerol. As a positive control, 8 wells of each plate contained 2 mM Suramin in 2% DMSO or 2 mM luciferase inhibitor 1 in 2% DMSO (Calbiochem).

HEK293 cells [5] = test: Luminescence of luciferases in lysed HEK293 cells (codon optimization); type: cell-based, human
Procedure: Codon optimized versions of IV (“IV opt” (SEQ ID NO: 22) and “IV optB” (SEQ ID NO: 23)) and 9B8 (“9B8 opt” (SEQ ID NO: 24) and “9B8 optB” (SEQ ID NO: 25)) were generated and cloned into pF4Ag by methods known in the art. HEK293 cells were plated in 96-well plates at 15,000 cells/well and grown overnight at 37° C. The following day, the cells were transiently transfected in 6 well replicates using TRANSIT®-LT1 Transfection Reagent (Minis Bio) with 100 ng of plasmid DNA encoding the codon optimized versions in pF4Ag and grown overnight at 37° C. HEK293 cells were also transfected with either pGL4.13 (Luc2/SV40) (Paguio et al., “pGL4 Vectors: A New Generation of Luciferase Reporter Vectors” Promega Notes, 89:7-10 (2005)) or pGL4.73 (hRL/SV40) (Id.) to normalize for differences in transfection efficiency. Ten ng/transfection or 10% of the total DNA transfected was used.
The OgLuc variants had higher luminescence compared to Luc2 and hRL.

T1 sequence (Q9GV45 other isoform, or with tags, fused parts or gaps with the stated changes): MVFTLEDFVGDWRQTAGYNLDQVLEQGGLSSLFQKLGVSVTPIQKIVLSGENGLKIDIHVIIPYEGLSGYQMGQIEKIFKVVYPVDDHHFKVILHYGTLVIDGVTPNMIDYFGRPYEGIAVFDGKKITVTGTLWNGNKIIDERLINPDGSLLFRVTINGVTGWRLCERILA
T2 sequence (Q9GV45 28-196 with tags or gaps with the stated changes limits assumed, one chain of several): as the sequence (Q9GV45 other isoform, or with tags, fused parts or gaps with the stated changes) above, with L29V, K35N, K45R, Y70D counted along it
T3 sequence (Q9GV45 other isoform, or with tags, fused parts or gaps with the stated changes): as the sequence (Q9GV45 other isoform, or with tags, fused parts or gaps with the stated changes) above

CC(C)c1[nH]c(-c2ccccc2)cn2c(=O)c(Cc3ccc(O)cc3)nc1-2 [PBI-3841]
Viability (normalized to vehicle (DMSO) control) (%) (HEK293 cells [1]): 100% | Change in relative specificity (novel coelenterazine/native coelenterazine) [2]: 350,000X

O=c1c(Cc2ccc(O)cc2)nc2c(C3CC3)[nH]c(-c3ccccc3)cn1-2 [PBI-3897, 8-cyclopropyl-2-(4-hydroxybenzyl)-6-phenylimidazo[1,2-a]pyrazin-3(7H)-one]
Viability (normalized to vehicle (DMSO) control) (%) (HEK293 cells [3]): 100% | Change in relative specificity (novel coelenterazine/native coelenterazine) [2]: 80,000X

O=c1c(Cc2ccco2)nc2c(Cc3ccccc3)[nH]c(-c3ccccc3)cn1-2 [PBI-3939, 8-benzyl-2-(furan-2-ylmethyl)-6-phenylimidazo[1,2-a]pyrazin-3(7H)-one]
Km (OgLuc variant L27V): ~10 µM | cell permeation (HEK293 cells [4]): can permeate cells in culture | Ogluc (average luminescence generated by 9B8 opt) (OgLuc variant 9B8 opt; 20 μM substrate in DUAL-GLO STOP&GLO Reagent): 2,996,940 | +/− coel (OgLuc variant 9B8 opt; Ogluc signal relative to no coelenterazine control): 207 | Stability (pH 8) (T90 in hrs): 4.1 hrs | Viability (normalized to vehicle (DMSO) control) (%) (HEK293 cells [3]): 89% | RLU (L27V02 enzyme): 9,808,880 RLU

Cc1ccc(C(=O)Nc2ccc(S(=O)(=O)O)c3cc(S(=O)(=O)O)cc(S(=O)(=O)O)c23)cc1NC(=O)c1cccc(NC(=O)Nc2cccc(C(=O)Nc3cc(C(=O)Nc4ccc(S(=O)(=O)O)c5cc(S(=O)(=O)O)cc(S(=O)(=O)O)c45)ccc3C)c2)c1 [Suramin]
inhibition of OgLuc (OgLuc): inhibitor of OgLuc

B1: Luc2: a firefly luciferase (protein, listed as Photinus pyralis)
chain: MEDAKNIKKGPAPFYPLEDGTAGEQLHKAMKRYALVPGTIAFTDAHIEVDITYAEYFEMSVRLAEAMKRYGLNTNHRIVVCSENSLQFFMPVLGALFIGVAVAPANDIYNERELLNSMGISQPTVVFVSKKGLQKILNVQKKLPIIQKIIIMDSKTDYQGFQSMYTFVTSHLPPGFNEYDFVPESFDRDKTIALIMNSSGSTGLPKGVALPHRTACVRFSHARDPIFGNQIIPDTAILSVVPFHHGFGMFTTLGYLICGFRVVLMYRFEEELFLRSLQDYKIQSALLVPTLFSFFAKSTLIDKYDLSNLHEIASGGAPLSKEVGEAVAKRFHLPGIRQGYGLTETTSAILITPEGDDKPGAVGKVVPFFEAKVVDLDTGKTLGVNQRGELCVRGPMIMSGYVNNPEATNALIDKDGWLHSGDIAYWDEDEHFFIVDRLKSLIKYKGYQVAPAELESILLQHPNIFDAGVAGLPDDDAGELPAAVVVLEHGKTMTEKEIVDYVASQVTTAKKLRGGVVFVDEVPKGLTGKLDARKIREILIKAKKGGKIAV
luminescence relative to hRL (HEK293 cells [5]): approximately 14 fold
